Reference: patent publication US6492137B1, “Response element compositions and assays employing same” (The Salk Institute for Biological Studies, priority 1989, dated 2002)
Changes are numbered by the printed parent chain.

Legend:
[1] = test system: endogenous RA receptor; test: Delta-MTV-CAT constructs, RA induction in CV-1 cells without cotransfected RAR expression vector; type: cell-based, monkey
Protocol: (§1) Cells were transfected in 10 cm dishes with 10 μg of DNA containing 5 μg of reporter plasmid, 1-2 μg of either RSV-LUC (a), or RSV-βGAL or pCH110 (c and d), pGEM4 as carrier DNA, and for the experiments shown in a and d, 1 μg of RSV-RAR expression vector or the same amount of an RSV vector generating a nonsense transcript. Cells were harvested 1 day after addition of retinoic acid. All CAT assays represent equivalent amounts of β-galactosidase activity; β-GAL assays were normalized to luciferase activity.

[2] = target: T1, RAR (Homo sapiens, UniProt P10276); test: Delta-MTV constructs, RA induction in CV-1 cells with cotransfected RAR expression vector; type: cell-based; conditions: Delta-MTV-CAT constructs; CV-1 cells
T1 construct: expressed in transfected cells; host or cells: CV-1 (monkey kidney)
T1 sequence (P10276 1-462): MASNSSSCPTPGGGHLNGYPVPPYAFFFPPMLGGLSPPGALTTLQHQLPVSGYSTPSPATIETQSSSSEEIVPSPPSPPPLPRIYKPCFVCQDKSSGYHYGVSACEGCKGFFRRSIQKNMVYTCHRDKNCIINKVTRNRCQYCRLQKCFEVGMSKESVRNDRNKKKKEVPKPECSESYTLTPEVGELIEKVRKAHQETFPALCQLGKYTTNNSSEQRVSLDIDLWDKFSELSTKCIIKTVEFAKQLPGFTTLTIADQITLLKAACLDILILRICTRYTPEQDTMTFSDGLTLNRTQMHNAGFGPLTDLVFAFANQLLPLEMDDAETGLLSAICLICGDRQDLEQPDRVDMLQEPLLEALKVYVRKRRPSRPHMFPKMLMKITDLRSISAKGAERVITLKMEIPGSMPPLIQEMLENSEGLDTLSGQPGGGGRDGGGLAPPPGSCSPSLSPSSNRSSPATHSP
Protocol: Inspection of the sequences of βRE1, βRE2, and βRE3 (see FIG. 2b) identifies a tandem repeat of the 6 bp motif. The center to center separation of 11 bp between these repeats is one turn of the DNA helix. […] Apparently, a single half site element of the RARβ gene would reciprocally be responsive to the TR, ER, and/or other members of the receptor superfamily.
as §1

[3] = test system: F9 teratocarcinoma stem cells; test: CAT reporter transfection into RA responsive F9 teratocarcinoma stem cells; type: cell-based, mouse; conditions: RA 1 μM, 24 hours; no transfected receptor
Protocol: (§2) For cotransfection assays, a monkey kidney cell line CV-1 was kept in Dulbecco's modified Eagle's medium (DMEM) supplemented with 10% charcoal-resin double split calf bovine serum. Transfections were performed via calcium-phosphate precipitation method as described by Umesono, et al. in Cell 57: 1139-1146 (1989), with 0.5 μg of a pRS receptor expression plasmid, 1.0 μg of a reporter CAT plasmid, 5 μg of pRAS-βGAL [Umesono, et al., Cell 57: 1139-1146 (1989)] as an internal control, and 8.5 μg of carrier plasmid pUC19. The cells were transfected for 8 hours; after washing the DNA precipitates, the cells were then incubated for an additional 36 hours with or without the ligand (T3, 100 nM; RA, 1 μM; 1,25-(OH)2 vitamin D3, 100 nM). Cell extracts were prepared for βGAL and CAT assays, as described by Umesono, et al., supra. Transfection of F9 teratocarcinoma cells was carried out employing a similar method except the cells were incubated for 12 hours in the presence of the DNA precipitates, and the RA was added at 1 μM for another 24 hours before harvesting the cells. 2, 5, and 4 μg of the reporter, pRAS-βGAL, and pUC19 were used, respectively.
Similarly, when the same set of reporters as in FIG. 4 were transfected into F9 cells, only MHC-R (5-nucleotide spacer) and TREp are potent RAREs. In contrast, its RARE antecedents (MHC-N, MHC+1, MHC-T) are inert.

[4] = target: T2, RARα (Homo sapiens, UniProt P10276); test: Gel retardation DNA-binding assay with RARα-expressing COS cell extracts; parameters: expressed in transfected cells; host or cells: COS cells (whole-cell extract); conditions: for competition for RARα binding to 32P-labeled βRARE: unlabeled competitor oligonucleotide, COS cell extracts
T2 sequence (P10276 1-462): T1 sequence (P10276 1-462)
Protocol: (§3) For DNA binding assays, COS cells were cultured in DMEM with 10% calf bovine serum and transfected by the calcium phosphate method with 20 μg of the pCMX receptor expression plasmid for 6 hours followed by a glycerol shock. After incubating the transfected COS cells for another 48 hours, the cells were harvested to prepare extracts for the DNA binding assay, carried out as described by Damm et al., Nature 339: 593-597 (1989). The extracts were made in 20 mM HEPES (pH 7.4), 0.4 M KCl, 2 mM DTT and 20% glycerol. A similar method was employed to prepare a whole cell extract from F9 stem cells. For the binding, 5 μg (COS) or 10 μg (F9) of proteins was incubated on ice for 20 minutes, first in 20 mM HEPES, 80 mM KCl, 1 mM DTT, 0.1% NP40, 2.5 μg of poly dI/dC, and 10% glycerol (cold competitor oligonucleotides, when included, were added during this pre-incubation period). Then 40 fmole of ^32P-labeled oligonucleotide probe (1-2×10^5 cpm, prepared by filling-in reaction using Klenow polymerase in the presence of α-^32P-dCTP) was added to the reaction mixture, followed by incubation at room temperature for 30 minutes. The receptor-DNA complexes were resolved by electrophoresis through 5% polyacrylamide gel containing 5% glycerol at 6 V/cm at room temperature.
Oligonucleotides listed in FIG. 3 were used as a probe to test specific DNA-binding of the RARα and TRβ in a gel retardation assay. On the βRARE, a faint background binding activity was detected in the mock transfected COS cell extract. […] In each case the result obtained from in vivo transactivation and in vitro DNA binding are consistent.
Using the mobility shift assay, the DNA-binding capacity of extracts from COS cells expressing TRβ and RARα to these sequences was also tested. […] This pattern is consistent with that of the in vivo activation (FIG. 4). A reciprocal pattern was obtained when the same oligonucleotides were used to compete RARα binding to the ^32P-labeled βRARE. […] This provides a striking example of the role of half-site spacing in generating a functional response element.

[5] = target: T3, TRβ (Homo sapiens, UniProt P10828); test: Gel retardation DNA-binding assay with TRβ-expressing COS cell extracts; parameters: expressed in transfected cells; host or cells: COS cells (whole-cell extract); conditions: unlabeled competitor oligonucleotide; COS cells expressing TRβ
T3 sequence (P10828 1-461): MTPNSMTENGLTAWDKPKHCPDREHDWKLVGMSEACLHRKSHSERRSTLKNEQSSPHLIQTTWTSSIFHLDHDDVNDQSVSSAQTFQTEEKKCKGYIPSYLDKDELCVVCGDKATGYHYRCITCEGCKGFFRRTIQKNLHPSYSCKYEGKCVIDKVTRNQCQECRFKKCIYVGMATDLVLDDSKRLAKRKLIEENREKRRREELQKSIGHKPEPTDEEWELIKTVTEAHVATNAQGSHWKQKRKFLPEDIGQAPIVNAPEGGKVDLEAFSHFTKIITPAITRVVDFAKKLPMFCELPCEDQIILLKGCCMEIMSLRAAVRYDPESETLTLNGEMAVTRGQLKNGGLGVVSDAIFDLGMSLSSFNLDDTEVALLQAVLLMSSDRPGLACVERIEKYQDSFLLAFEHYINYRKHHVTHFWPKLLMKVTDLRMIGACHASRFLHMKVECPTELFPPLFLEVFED
Protocol: as §3
Oligonucleotides listed in FIG. 3 were used as a probe to test specific DNA-binding of the RARα and TRβ in a gel retardation assay.
Using the mobility shift assay, the DNA-binding capacity of extracts from COS cells expressing TRβ and RARα to these sequences was also tested.

[6] = target: T4, Thyroid hormone receptor beta (TRβ), in CV-1 cells (Homo sapiens, UniProt P10828 P10828:1-461); test: cell_activity; T3 100 nM, CV-1; conditions: tags: pRShTRβ, 5'-agct overhangs
T4 sequence: T3 sequence (P10828 1-461)
Protocol: as §2, with “1139–1146” for “1139-1146”, “(T_3,” for “(T3,”, “1,25-(OH)_2” for “1,25-(OH)2”, “D_3,” for “D3,”
(§4) Starting from the MHC-TRE (MHC-N), a set of oligonucleotides (see FIG. 4a) were designed to introduce variations in the half-site spacing (MCH+1), the half-site sequence (MHC-T), or both (MHC-R). A single copy of these oligonucleotides was placed in the basal reporter construct ΔSV-CAT (designated by "(−)" in FIG. 4b), giving rise to a set of CAT reporter plasmids together with one encoding TREp. Parallel cotransfections with expression plasmids for TRβ or RARα were performed in CV-1 cells along with the ΔSV-CAT reporter containing a single copy of the variant HRE. After addition of hormone (RA, 1 μM; T_3, 100 nM), the cell extracts were assayed for the CAT activity by […] the β-galactosidase activity produced by cotransfected pRAS-βGAL. In the figure, numbers in the columns indicate the level of induction of CAT activity by the hormone.

[7] = target: T5, Retinoic acid receptor alpha (RARα), in CV-1 cells (Homo sapiens, UniProt P10276 P10276:1-462); test: cell_activity; RA 1 µM, CV-1; conditions: tags: RSV or pRS expression vector; 5'-agct overhangs
T5 sequence: T1 sequence (P10276 1-462)
Protocol: as §2, with “1139–1146” for “1139-1146”, “(T_3,” for “(T3,”, “1,25-(OH)_2” for “1,25-(OH)2”, “D_3,” for “D3,”
as §4

## 5′-AAGCTTAAG-GGTTCA-CCGAA-AGTTCA-CTCAGCTT-3′ (SEQ ID NO:7) (AAGCTTAAGGGTTCACCGAAAGTTCACTCAGCTT; listed as DNA, chemistry not given here) [βRE3, oligonucleotide including the β retinoic acid response element]
[1]
  RA-dependent induction in the absence of cotransfected RAR expression vector: robust RA-dependent induction
[2]
  increase of induction by cotransfection of RAR-alpha expression vector: two-fold

## DR-5: perfect tandem repeat of AGGTCA hexamers separated by 5 nucleotides (SEQ ID NO:29) (AGCTTCAGGTCACCAGGAGGTCAGAGAGCT; DNA, backbone not given here; double-stranded DNA response element with agct overhangs, cloned into reporter)
[3]
  function as RARE in F9 cells: functional RARE
[4]; gel retardation, RARα COS cell extract
  RARα binding to labeled oligonucleotide probe: specific protein-DNA complex

## MHC-R: MHC-T with half-site spacing increased by one nucleotide (SEQ ID NO:24) (AGCTGGAGGTGAACAGGAGGTCAGCAAGCT; DNA, backbone not given here; double-stranded response element with agct overhangs, cloned into reporter plasmid)
[3]
  function as RARE in F9 cells: potent RAREs
[5]
  competition for TRβ binding (mobility shift assay): poor competitors
[4]
  competition for RARα binding to 32P-labeled βRARE: effective competitors

## MHC-T: MHC-N with the AGGACA half-site corrected to AGGTCA (SEQ ID NO:23) (AGCTGGAGGTGACAGGAGGTCAGCAAGCT; DNA, backbone not given here; double-stranded response element with agct overhangs, cloned into reporter plasmid)
[3]
  function as RARE in F9 cells: inert
[5]
  competition for TRβ binding (mobility shift assay): efficient competition
[4]
  competition for RARα binding to 32P-labeled βRARE: fails to compete efficiently

B1: TREp (dsDNA)
DNA 1: AGCTTCAGGTCATGACCTGAGAGCT
DNA 2: AGCTCTCAGGTCATGACCTGAAGCT
[6]
  activity: 14 fold induction
[7]
  activity: 9 fold induction

B2: MHC-N (dsDNA)
DNA 1: AGCTGGAGGTGACAGGAGGACAGCAAGCT
DNA 2: AGCTTGCTGTCCTCCTGTCACCTCCAGCT
[6]; label: 32P
  activity: 10 fold induction

B3: MHC+1 (dsDNA)
DNA 1: AGCTGGAGGTGAACAGGAGGACAGCAAGCT
DNA 2: AGCTTGCTGTCCTCCTGTTCACCTCCAGCT
[6]
  activity: < 2 fold induction
[7]
  activity: 4 fold induction

B4: MHC-T (dsDNA)
DNA 1: AGCTGGAGGTGACAGGAGGTCAGCAAGCT
DNA 2: AGCTTGCTGACCTCCTGTCACCTCCAGCT
[6]
  activity: 15 fold induction
[7]
  activity: 2.6 fold induction

B5: MHC-R (dsDNA)
DNA 1: B3 DNA 1 with A21T
DNA 2: B3 DNA 2 with T10A
[7]
  activity: 7.4 fold induction
